Experimental data as given in patent publication US12653896B2, “Targeted dendrimer conjugates” (Starpharma Pty Ltd, priority 2019, dated 2026).

Legend:
MDA-MB-231 cells [1] = test: In vitro association study (flow cytometry, Cy5), MDA-MB-231; format: cell-based, human
Protocol: (§1) MDA-MB-231, MDA-MB-231/HER2 (HER2 knock in) (as described above), or SKOV-3 cells were seeded in a 24-well plate (1×10^5 cells per well) in 500 μL of appropriate growth media with the addition of 10% (v/v) fetal bovine serum (FBS) and incubated with compound 36 or 41 at 3.33 nM, […] atmosphere. After incubation, non-binding/non-associating particles were removed from adherent cells by gently washing with DPBS three times (300 μL/well). Cells were removed from plates by treatment with TrypLE™ Express Enzyme (1×), no phenol red (150 μL/well) for 5-10 min at room temperature. The plates were then placed on ice. Cellular binding and association of sample were then determined through flow cytometry by the acquisition of the signal from Cy5.

MDA-MB-231/HER2 cells = test: In vitro association study (flow cytometry, Cy5), MDA-MB-231/HER2; format: cell-based, human
Protocol: as §1

ErbB2-ECD = biological target: T1, ErbB2-ECD (Homo sapiens, UniProt P04626); test: SPR binding to immobilized ErbB2-ECD; settings: result in words
T1 construct: Direct Immobilization of ErbB2-ECD
Protocol: Using a ProteOn XPR36 instrument, ErbB2-ECD was immobilized at 25° C. onto a GLC sensor chip surface (Bio-Rad), with HBS-P+ running buffer (10 mM HEPES, pH 7.4, 150 mM NaCl, 0.05% Tween 20). Standard amine coupling methodology described in Bio-Rad's amine coupling kit was utilized for this immobilization. Lane 1 was activated with a 50:50 mixture of EDC (0.5 mM) and sulfo-NHS (0.125 mM). ErbB2 protein was diluted to […] in 10 mM sodium acetate, pH 5.0 and injected over the activated surface channel. Any remaining activated sites were blocked with 1 M ethanolamine-HCl, pH 8.5.
All SPR binding experiments were performed at 25° C. using HBS-EP+/BSA (10 mM HEPES, pH 7.4, 150 mM NaCl, 3 mM EDTA, 0.05% Tween20, 0.1 mg/ml BSA) as the instrument running buffer (RB). Following immobilization procedures, various concentrations of anti-ErbB2 affibodies and their MMAE-dendrimer conjugates were injected at 60 μl/min over immobilized ErbB2 proteins and their association monitored for 90 sec. Running buffer was subsequently injected over bound Ab-ErbB2 complexes and dissociation monitored for up to 60 min. […] All binding measurements were performed in triplicate.
Collected experimental data were processed using Scrubber-Pro software (www.biologic.com.au). […]

MDA-MB-453 cells = test: Cell association by flow cytometry (Cy5), MDA-MB-453; format: cell-based, human
Protocol: The HER2-expressing human metastatic carcinoma cell line MDA-MB-453 (ATCC HTB-131) and the HER2-negative epithelial adenocarcinoma cell line MDA-MB-231 (ATCC HTB-26) were maintained in Dulbecco's Modified Eagle's Medium (DMEM) containing 10% FBS and penicillin-streptomycin (100 U/mL) at 37° C. under a 5% CO2 humidified atmosphere and subcultured prior to confluence using trypsin. Human adenocarcinoma ovary cell line SKOV-3 (ATCC® HTB-77) cells were maintained in RPMI media with the addition of 10% (v/v) FBS and penicillin-streptomycin (100 U/mL) at 37° C. in a 5% CO2 humidified atmosphere and subcultured prior to confluence.
For measurement of cell association by flow cytometry, cells in suspension were added at 1×10^5 cells per well to a 96 well assay plate. Following incubation with nanobody-dendrimer or unconjugated dendrimer for 1 hour on ice, cells were washed three times with 200 ul of DMEM containing 10% FBS to remove unbound dendrimer. Cells were then resuspended in chilled Fluorobrite media supplemented with 10% FBS and Cy5 fluorescence measured using 642 nm excitation and emission collected between 661-691 nm. To measure internalisation kinetics, nanobody-dendrimer was incubated with cells for 24, 4, 1, 0.5 and 0.1 hours at 37° C. before unbound nanobody-dendrimer was removed by washing and analysed by flow cytometry.

MDA-MB-231 cells [2] = test: In vitro association study of G5 cabazitaxel dendrimers, MDA-MB-231; format: cell-based, human; settings: MDA-MB-231, 3.33 nM
Protocol: (§2) MDA-MB-231, MDA-MB-231/HER2 (HER2 knock in), or SKOV-3 cells were seeded in a 24-well plate (1×10^5 cells per well) in 500 μL of appropriate growth media with the addition of 10% (v/v) fetal bovine serum (FBS) and 1% (v/v) penicillin-streptomycin, and incubated with compound 70 (G5, PEG1000, CTX) or 78 (2D3, G5, PEG1000, CTX) at 3.33 nM, with incubation time varied from 1 to 24 h at 37° C. in a 5% CO2 humidified atmosphere. After incubation, non-binding/non-associating particles were removed from adherent cells by gently washing with DPBS three times (300 μL/well). Cells were removed from plates by treatment with TrypLE™ Express Enzyme (1×), no phenol red (150 μL/well) for 5-10 min at room temperature. The plates were then placed on ice. Cellular binding and association of sample were then determined through flow cytometry by the acquisition of the signal from Cy5.

SKOV-3 cells = test: In vitro association study of G5 cabazitaxel dendrimers, SKOV-3; format: cell-based, human; settings: SKOV-3, 3.33 nM
Protocol: as §2

[3] = system: MDA-MB-231/HER2 (HER2 knock in) cells; test: In vitro association study of G5 cabazitaxel dendrimers, MDA-MB-231/HER2; format: cell-based, human; settings: MDA-MB-231/HER2, 3.33 nM
Protocol: as §2

Substance: BHALys[Lys]2[Lys]4[Lys]8[Lys]16[((α-NH-COPEG24NH-COPEG4(PhTzMe)/TCO-PEG3NH-COPEG24NH-Glu-DBCO)1(α-Lys(α-NHCy5)(ε-NHDFO))1(α-NH2)14)(ε-NH-COPEG1000)16] [Compound 84]
- cellular association value (DFO/Cy5 BHA dendrimers; quantity not named, table stands under 'Percent of cellular association') (MDA-MB-231 cells [1]; MDA-MB-231, 0.5 h): 20.23 ± 0.63
- cellular association value (DFO/Cy5 BHA dendrimers; quantity not named, table stands under 'Percent of cellular association') (MDA-MB-231/HER2 cells; MDA-MB-231/HER2, 0.5 h): 16.7 ± 2.48

Substance: Azido-PEG24CO—[N(PN)2][Lys]8[(α-NH-Glu-Val-Cit-PAB-MMAE)8(ε-NH-COPEG1100)8] [Compound 20]
- binding to ErbB2 (ErbB2-ECD): No binding

Substance: (MeTzPh)PEG4CO-NHPEG24CO—[N(PN)2][Lys]16[((α-NHCy5)1(α-NHAc)15)(ε-NH-COPEG1100)16] [Compound 38]
- Mean fluorescence intensity (MDA-MB-231 cells [1]; MDA-MB-231, 1 h): 239.3 ± 1.2
- Mean fluorescence intensity (MDA-MB-231 cells [1]; MDA-MB-231, 2 h): 230.7 ± 2.3
- Mean fluorescence intensity (MDA-MB-231 cells [1]; MDA-MB-231, 4 h): 217.3 ± 3.2
- Mean fluorescence intensity (MDA-MB-231 cells [1]; MDA-MB-231, 24 h): 195.7 ± 0.6
- Mean Fluorescence Intensity (Cy5), MFI (MDA-MB-453 cells; MDA-MB-453, 1 hour on ice, triplicate wells): 6.827 ± 0.07
- binding to HER2-positive MDA-MB-453 cells (MDA-MB-453 cells; result in words): did not bind
- Mean fluorescence intensity (MDA-MB-231/HER2 cells; MDA-MB-231/HER2, 1 h): 269.0 ± 19.8
- Percent of cellular association (MDA-MB-231/HER2 cells; MDA-MB-231/HER2, 1 h): 0.90 ± 0.35%
- Mean fluorescence intensity (MDA-MB-231/HER2 cells; MDA-MB-231/HER2, 2 h): 225.0 ± 5.7
- Percent of cellular association (MDA-MB-231/HER2 cells; MDA-MB-231/HER2, 2 h): 0.50 ± 0.10%
- Mean fluorescence intensity (MDA-MB-231/HER2 cells; MDA-MB-231/HER2, 4 h): 198.0 ± 2.8
- Percent of cellular association (MDA-MB-231/HER2 cells; MDA-MB-231/HER2, 4 h): 0.50 ± 0.35%
- Mean fluorescence intensity (MDA-MB-231/HER2 cells; MDA-MB-231/HER2, 24 h): 175.5 ± 0.7
- Percent of cellular association (MDA-MB-231/HER2 cells; MDA-MB-231/HER2, 24 h): 0.37 ± 0.15%

Substance: BHA[Lys]32[((α-NH-COPEG24NH-COPEG4(PhMeTz))1-4(α-NHCy5)1(α-NH-COPEG9-Val-Ala-PAB-P-Trigger-NMeCO-CTX)22) (α-NH2)5-8(ε-NH-COPEG1100)32] [Compound 70]
- Mean fluorescence intensity (MFI) (MDA-MB-231 cells [2]; 1 h): 1.00 ± 0.14
- Mean fluorescence intensity (MFI) (MDA-MB-231 cells [2]; 3 h): 4.10 ± 0.71
- Mean fluorescence intensity (MFI) (MDA-MB-231 cells [2]; 6 h): 5.65 ± 0.64
- Mean fluorescence intensity (MFI) (MDA-MB-231 cells [2]; 24 h): 13.4 ± 0.07
- binding over 24 h (MDA-MB-231 cells [2]; in words): minimal binding
- Mean fluorescence intensity (MFI) (SKOV-3 cells; 1 h): 1.00 ± 0.29
- Mean fluorescence intensity (MFI) (SKOV-3 cells; 3 h): 3.46 ± 0.69
- Mean fluorescence intensity (MFI) (SKOV-3 cells; 6 h): 3.90 ± 0.10
- Mean fluorescence intensity (MFI) (SKOV-3 cells; 24 h): 11.4±0.42
- binding over 24 h (SKOV-3 cells; in words): minimal binding
- Mean fluorescence intensity (MFI) ([3]; 1 h): 0.77 ± 0.06
- Mean fluorescence intensity (MFI) ([3]; 3 h): 7.72 ± 4.17
- Mean fluorescence intensity (MFI) ([3]; 6 h): 5.82 ± 0.07
- Mean fluorescence intensity (MFI) ([3]; 24 h): 12.4±0.64
- binding over 24 h ([3]; in words): minimal binding
